Test results as given in the supplement of paper PMC11208160.

Assay: recombinant barcode read abundance after kanamycin selection (control-corrected) (log10(CPM+1)); higher = more efficient recombination; sequences stand for … in AGTGCAGAGAAAATCGGCCAGTTTTCTCTGCCTGCAGTCCGCATGCCGT…AGATTTATGCAGCGGACTGCCTTTCTCCCAAAGTGATAAACCGGACAGTATCATGGACCGGTTTTCCCGGTAATCCGTATTTGCAAGGTTGGTTTCACT; site = the 11-nt target
Summary of the method: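 IS621 bridge RNA target-binding loops were paired with targets in a pooled library tested in E. coli. After co-electroporation with a donor plasmid, cells were plated in two replicates on chloramphenicol/ampicillin LB agar (control) and on chloramphenicol/ampicillin/kanamycin carrying 0.1 mM IPTG. Barcodes at recombinant junctions were counted as counts per million, averaged and control-corrected to give recombination efficiency. Values are log10(CPM+1).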
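Note: IS621 recombinase and bridge RNA in Escherichia coli cells.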

Sequence	recombinant barcode read abundance (log10)
CGAGATTCTTGGGTTCTAACCTGTTGCCT (site CTAGATTCTAG)	0.332
CGAGCTCCTTGGGTTCTAACCTGTTGCGT (site CGAGCTCCTAA)	0.0215
CGAGCTCCTTGGGTTCTAACCTGTTGCGT (site CGAGCTCCTAC)	2.04
CGAGCTCCTTGGGTTCTAACCTGTTGCGT (site CGAGCTCCTAG)	0.813
CGAGCTCCTTGGGTTCTAACCTGTTGCGT (site CGAGCTCCTAT)	0.766
CGAGGACCTTGGGTTCTAACCTGTTGCCT (site CCAGGACCTAG)	0.729
CGAGGACCTTGGGTTCTAACCTGTTGCCT (site CGAGGACCTAG)	2.3
CGAGGGACTTGGGTTCTAACCTGTTGCCT (site CGAGGGACTAG)	1.81
CGAGGGACTTGGGTTCTAACCTGTTGCCT (site CGAGGGCCTAG)	0.0632
CGAGGGACTTGGGTTCTAACCTGTTGCCT (site CGAGGGGCTAG)	0.807
CGAGGGACTTGGGTTCTAACCTGTTGCCT (site CGAGGGTCTAG)	0.056
CGAGGGCCTTGGGTTCTAACCTGTTGCCT (site CGAGGGACTAG)	0.049
CGAGGGCCTTGGGTTCTAACCTGTTGCCT (site CGAGGGCCTAG)	0.603
CGAGGGCCTTGGGTTCTAACCTGTTGCCT (site CGAGGGGCTAG)	0.0635
CGAGGGCCTTGGGTTCTAACCTGTTGCCT (site CGAGGGTCTAG)	0.345
CGAGTGACTTGGGTTCTAACCTGTTGCAG (site ATTAACTCTAG)	0.0869
CGAGTGACTTGGGTTCTAACCTGTTGCAG (site CGAGTGACTCT)	1.32
CGATGGACTTGGGTTCTAACCTGTTGCCG (site CAATGGGCTCG)	0.102
CGATGGACTTGGGTTCTAACCTGTTGCCG (site CGATGGACTCG)	0.956
CGATGTCCTTGGGTTCTAACCTGTTGCCT (site CGATGTCCTAG)	0.864

Sequence	recombinant barcode read abundance (log10)
CGATGTCCTTGGGTTCTAACCTGTTGCCT (site CGATGTGCTAG)	0.039
CGATTACCTTGGGTTCTAACCTGTTGCCT (site CGATTAACTAG)	0.0753
CGATTACCTTGGGTTCTAACCTGTTGCCT (site CGATTACCTAG)	0.264
CGATTACCTTGGGTTCTAACCTGTTGCCT (site CGATTAGCTAG)	0.38
CGATTACCTTGGGTTCTAACCTGTTGCCT (site CGATTATCTAG)	0.11
CGATTAGCTTGGGTTCTAACCTGTTGCCT (site CGATTAACTAG)	0.161
CGATTAGCTTGGGTTCTAACCTGTTGCCT (site CGATTACCTAG)	0.038
CGATTAGCTTGGGTTCTAACCTGTTGCCT (site CGATTAGCTAG)	0.169
CGATTAGCTTGGGTTCTAACCTGTTGCCT (site CGATTATCTAG)	0.186
CGCACGTCTTGGGTTCTAACCTGTTGCTT (site CACAAGTCTAA)	0.185
CGCACGTCTTGGGTTCTAACCTGTTGCTT (site CGCACGTCTAA)	0.0911
CGCCACACTTGGGTTCTAACCTGTTGCCT (site CGACACACTAG)	0.426
CGCCACACTTGGGTTCTAACCTGTTGCCT (site CGCCACACTAG)	0.296
CGCCACACTTGGGTTCTAACCTGTTGCCT (site CGGCACACTAG)	0.689
CGCCACACTTGGGTTCTAACCTGTTGCCT (site CGTCACACTAG)	1.22
CGCCGAACTTGGGTTCTAACCTGTTGCCT (site AGCCGAACTAG)	0.0619
CGCCGAACTTGGGTTCTAACCTGTTGCCT (site CGCCGAACTAG)	0.0225
CGCCGAACTTGGGTTCTAACCTGTTGCCT (site GGCCGAACTAG)	0.339
CGCCGAACTTGGGTTCTAACCTGTTGCCT (site TGCCGAACTAG)	0.0386
CGCCTGCCTTGGGTTCTAACCTGTTGCCT (site CGCCAGCCTAG)	0.119

Sequence	recombinant barcode read abundance (log10)
CGCCTGCCTTGGGTTCTAACCTGTTGCCT (site CGCCTGCCTAG)	0.113
CGCCTTCCTTGGGTTCTAACCTGTTGCAT (site CGCCATCCTAT)	0.121
CGCCTTCCTTGGGTTCTAACCTGTTGCAT (site CGCCCTCCTAT)	0.157
CGCCTTCCTTGGGTTCTAACCTGTTGCAT (site CGCCGTCCTAT)	0.0857
CGCCTTCCTTGGGTTCTAACCTGTTGCAT (site CGCCTTCCTAT)	0.0767
CGCGCAGCTTGGGTTCTAACCTGTTGCCT (site CGAGCAGCTAG)	0.382
CGCGCAGCTTGGGTTCTAACCTGTTGCCT (site CGCGCAGCTAG)	0.267
CGCGCAGCTTGGGTTCTAACCTGTTGCCT (site CGGGCAGCTAG)	0.135
CGCGCAGCTTGGGTTCTAACCTGTTGCCT (site CGTGCAGCTAG)	0.416
CGCGTAACTTGGGTTCTAACCTGTTGCCT (site CGCGCAACTAG)	0.112
CGCGTAACTTGGGTTCTAACCTGTTGCCT (site CGCGTAACTAG)	0.123
CGCTCCTCTTGGGTTCTAACCTGTTGCAT (site CGCTCCTCTAT)	0
CGCTCCTCTTGGGTTCTAACCTGTTGCAT (site GCTCGACCTCA)	0.177
CGCTCCTCTTGGGTTCTAACCTGTTGCCT (site AGCTCCTCTAG)	0.0659
CGCTCCTCTTGGGTTCTAACCTGTTGCCT (site CGCTCCTCTAG)	0.027
CGCTCCTCTTGGGTTCTAACCTGTTGCCT (site GGCTCCTCTAG)	0.0456
CGCTCCTCTTGGGTTCTAACCTGTTGCCT (site TGCTCCTCTAG)	0.103
CGCTGACCTTGGGTTCTAACCTGTTGCCT (site CGCTGACCTAG)	0.0666
CGCTGACCTTGGGTTCTAACCTGTTGCCT (site GCAACCTCTTA)	0.11
